Source: ChEMBL document CHEMBL5465560, “Selectivity Literature for EUbOPEN Chemogenomic Library” (2024)
Blank lines part the entries; values can stand above or below the compound they belong to.

What was measured:
[1] = biological target: Tyrosine-protein kinase BTK (Homo sapiens, UniProt Q06187); assay: Selectivity interaction (KinomeScan (DiscoverX)) EUB0001049a BTK; conditions: at 1 µM
[2] = biological target: T1, Serine/threonine-protein kinase greatwall (Homo sapiens) (UniProt Q96GX5); assay: Selectivity interaction (ActivX KiNativ screen (kinase selectivity in THP-1 cell lysates)) EUB0000639a MASTL; type: subcellular; conditions: lysate, at 5 µM
T1 sequence (whole entry): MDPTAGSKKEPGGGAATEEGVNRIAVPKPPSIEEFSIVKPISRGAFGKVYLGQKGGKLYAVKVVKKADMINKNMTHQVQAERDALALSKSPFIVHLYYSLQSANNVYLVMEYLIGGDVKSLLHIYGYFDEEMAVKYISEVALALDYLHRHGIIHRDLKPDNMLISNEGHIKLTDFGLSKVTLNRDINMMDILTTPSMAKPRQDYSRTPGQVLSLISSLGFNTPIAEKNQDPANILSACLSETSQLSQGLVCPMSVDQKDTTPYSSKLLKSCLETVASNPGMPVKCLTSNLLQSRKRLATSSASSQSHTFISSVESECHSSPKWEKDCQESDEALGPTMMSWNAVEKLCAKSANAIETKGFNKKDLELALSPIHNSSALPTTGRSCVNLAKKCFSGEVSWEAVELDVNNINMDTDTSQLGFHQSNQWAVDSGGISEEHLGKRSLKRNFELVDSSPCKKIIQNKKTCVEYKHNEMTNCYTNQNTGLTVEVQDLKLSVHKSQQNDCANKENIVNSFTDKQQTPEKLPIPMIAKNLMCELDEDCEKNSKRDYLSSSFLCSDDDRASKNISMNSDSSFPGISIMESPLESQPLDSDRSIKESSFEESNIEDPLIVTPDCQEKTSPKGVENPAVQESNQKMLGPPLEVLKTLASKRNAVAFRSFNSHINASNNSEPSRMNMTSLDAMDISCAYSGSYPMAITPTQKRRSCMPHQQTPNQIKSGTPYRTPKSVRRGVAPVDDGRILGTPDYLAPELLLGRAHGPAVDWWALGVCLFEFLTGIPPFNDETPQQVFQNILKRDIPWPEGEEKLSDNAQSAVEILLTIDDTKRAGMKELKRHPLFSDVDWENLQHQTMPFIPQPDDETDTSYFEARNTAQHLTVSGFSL

[3] = biological target: MAP kinase-activated protein kinase 2 (Homo sapiens, UniProt P49137); assay: Selectivity interaction (Kinase panel (33PanQinase(R) Activity Assay)) EUB0000877a MAPKAPK2
Chain of MAP kinase-activated protein kinase 2 (P49137 whole entry): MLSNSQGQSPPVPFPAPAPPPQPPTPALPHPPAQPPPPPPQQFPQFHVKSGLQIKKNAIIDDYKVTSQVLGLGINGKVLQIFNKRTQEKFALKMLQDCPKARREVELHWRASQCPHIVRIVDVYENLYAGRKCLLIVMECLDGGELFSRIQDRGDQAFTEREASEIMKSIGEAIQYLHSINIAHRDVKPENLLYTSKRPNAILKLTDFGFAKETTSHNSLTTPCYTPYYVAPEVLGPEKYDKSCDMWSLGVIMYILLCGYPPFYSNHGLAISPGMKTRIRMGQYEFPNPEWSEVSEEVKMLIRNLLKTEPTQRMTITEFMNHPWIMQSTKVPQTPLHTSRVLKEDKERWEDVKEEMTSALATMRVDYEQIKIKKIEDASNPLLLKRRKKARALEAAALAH

[4] = biological target: T2, Tyrosine-protein kinase JAK3 (Homo sapiens, UniProt P52333)
T2 sequence (P52333 whole entry): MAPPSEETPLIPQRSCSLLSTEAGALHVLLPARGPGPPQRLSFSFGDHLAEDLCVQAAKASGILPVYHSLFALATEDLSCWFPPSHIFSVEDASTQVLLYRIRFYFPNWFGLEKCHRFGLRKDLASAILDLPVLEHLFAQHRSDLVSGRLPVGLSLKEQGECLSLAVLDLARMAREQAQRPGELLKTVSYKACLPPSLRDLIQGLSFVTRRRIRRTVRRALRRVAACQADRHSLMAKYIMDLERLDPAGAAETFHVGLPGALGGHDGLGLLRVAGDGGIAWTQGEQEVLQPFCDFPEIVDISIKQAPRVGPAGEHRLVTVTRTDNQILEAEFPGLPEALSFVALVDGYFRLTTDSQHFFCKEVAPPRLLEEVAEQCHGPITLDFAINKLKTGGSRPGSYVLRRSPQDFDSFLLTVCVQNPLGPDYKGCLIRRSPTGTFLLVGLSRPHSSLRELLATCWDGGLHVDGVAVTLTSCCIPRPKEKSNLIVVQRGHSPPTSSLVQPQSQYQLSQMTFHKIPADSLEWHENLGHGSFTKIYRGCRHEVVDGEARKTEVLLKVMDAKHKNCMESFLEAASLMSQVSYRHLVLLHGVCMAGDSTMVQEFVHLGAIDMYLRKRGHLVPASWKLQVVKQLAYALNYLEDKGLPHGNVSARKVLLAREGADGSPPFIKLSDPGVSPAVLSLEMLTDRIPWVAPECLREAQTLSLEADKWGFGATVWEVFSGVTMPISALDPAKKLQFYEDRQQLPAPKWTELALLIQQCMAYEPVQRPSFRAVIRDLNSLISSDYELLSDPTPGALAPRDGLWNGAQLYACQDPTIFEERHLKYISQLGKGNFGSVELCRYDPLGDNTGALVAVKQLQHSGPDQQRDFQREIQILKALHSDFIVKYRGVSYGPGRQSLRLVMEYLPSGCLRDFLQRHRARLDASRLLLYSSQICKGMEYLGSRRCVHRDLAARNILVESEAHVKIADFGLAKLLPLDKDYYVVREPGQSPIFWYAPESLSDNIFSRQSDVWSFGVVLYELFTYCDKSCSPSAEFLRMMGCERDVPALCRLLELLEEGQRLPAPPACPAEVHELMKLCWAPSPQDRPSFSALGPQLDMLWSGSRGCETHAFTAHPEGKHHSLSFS

[5] = biological target: Serine/threonine-protein kinase MRCK alpha (Homo sapiens) (UniProt Q5VT25); conditions: at 10 µM
Chain of Serine/threonine-protein kinase MRCK alpha (Homo sapiens) (Q5VT25 whole entry): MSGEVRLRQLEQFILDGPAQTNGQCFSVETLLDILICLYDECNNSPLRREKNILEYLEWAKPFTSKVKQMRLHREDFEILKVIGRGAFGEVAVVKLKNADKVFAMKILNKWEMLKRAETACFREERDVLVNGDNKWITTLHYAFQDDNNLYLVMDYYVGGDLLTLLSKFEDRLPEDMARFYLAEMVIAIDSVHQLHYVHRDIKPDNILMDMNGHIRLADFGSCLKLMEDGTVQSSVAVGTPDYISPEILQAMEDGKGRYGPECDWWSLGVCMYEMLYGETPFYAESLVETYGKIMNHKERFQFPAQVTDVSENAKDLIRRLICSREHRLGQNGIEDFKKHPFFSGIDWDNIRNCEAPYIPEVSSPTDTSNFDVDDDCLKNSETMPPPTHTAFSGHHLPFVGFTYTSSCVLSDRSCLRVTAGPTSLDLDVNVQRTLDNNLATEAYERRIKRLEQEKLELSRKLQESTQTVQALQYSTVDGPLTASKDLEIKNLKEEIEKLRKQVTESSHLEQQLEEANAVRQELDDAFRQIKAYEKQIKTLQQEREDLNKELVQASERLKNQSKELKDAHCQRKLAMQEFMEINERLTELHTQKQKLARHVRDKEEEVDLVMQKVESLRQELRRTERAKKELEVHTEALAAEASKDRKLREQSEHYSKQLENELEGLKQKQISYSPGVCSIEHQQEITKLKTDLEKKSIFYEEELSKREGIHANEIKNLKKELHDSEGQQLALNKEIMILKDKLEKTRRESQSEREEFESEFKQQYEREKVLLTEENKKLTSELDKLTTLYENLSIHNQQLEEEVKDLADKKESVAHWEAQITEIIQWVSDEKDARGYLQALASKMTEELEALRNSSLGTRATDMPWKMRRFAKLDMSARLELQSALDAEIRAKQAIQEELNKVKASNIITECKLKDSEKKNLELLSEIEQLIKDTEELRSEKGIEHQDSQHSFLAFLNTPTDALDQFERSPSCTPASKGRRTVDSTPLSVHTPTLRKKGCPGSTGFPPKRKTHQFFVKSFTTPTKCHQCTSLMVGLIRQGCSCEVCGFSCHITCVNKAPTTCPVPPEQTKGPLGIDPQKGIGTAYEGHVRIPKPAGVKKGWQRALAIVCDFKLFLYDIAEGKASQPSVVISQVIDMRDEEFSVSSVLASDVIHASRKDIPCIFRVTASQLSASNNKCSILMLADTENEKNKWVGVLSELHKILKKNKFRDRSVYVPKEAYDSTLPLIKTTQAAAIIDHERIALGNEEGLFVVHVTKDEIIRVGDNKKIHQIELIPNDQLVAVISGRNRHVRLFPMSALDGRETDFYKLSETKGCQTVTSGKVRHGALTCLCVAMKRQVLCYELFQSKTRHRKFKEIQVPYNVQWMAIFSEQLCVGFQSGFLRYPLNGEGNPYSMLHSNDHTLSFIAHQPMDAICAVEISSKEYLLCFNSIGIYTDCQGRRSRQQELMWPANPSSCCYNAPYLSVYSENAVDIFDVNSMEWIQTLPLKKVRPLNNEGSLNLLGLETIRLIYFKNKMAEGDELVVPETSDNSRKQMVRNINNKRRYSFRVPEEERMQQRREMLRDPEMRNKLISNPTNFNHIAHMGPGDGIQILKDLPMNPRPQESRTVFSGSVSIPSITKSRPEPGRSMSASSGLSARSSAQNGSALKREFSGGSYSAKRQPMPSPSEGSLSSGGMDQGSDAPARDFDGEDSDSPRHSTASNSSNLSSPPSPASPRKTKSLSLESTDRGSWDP

[6] = biological target: cAMP-dependent protein kinase catalytic subunit alpha (Homo sapiens, UniProt P17612); assay: Selectivity interaction (KinomeScan (DiscoverX)) EUB0000655a PRKACA; conditions: at 10 µM
[7] = biological target: T3, Dual specificity mitogen-activated protein kinase kinase 7 (Homo sapiens) (UniProt O14733); assay: Selectivity interaction (KinomeScan (DiscoverX)) EUB0000655a MAP2K7; conditions: at 10 µM
T3 sequence (whole entry): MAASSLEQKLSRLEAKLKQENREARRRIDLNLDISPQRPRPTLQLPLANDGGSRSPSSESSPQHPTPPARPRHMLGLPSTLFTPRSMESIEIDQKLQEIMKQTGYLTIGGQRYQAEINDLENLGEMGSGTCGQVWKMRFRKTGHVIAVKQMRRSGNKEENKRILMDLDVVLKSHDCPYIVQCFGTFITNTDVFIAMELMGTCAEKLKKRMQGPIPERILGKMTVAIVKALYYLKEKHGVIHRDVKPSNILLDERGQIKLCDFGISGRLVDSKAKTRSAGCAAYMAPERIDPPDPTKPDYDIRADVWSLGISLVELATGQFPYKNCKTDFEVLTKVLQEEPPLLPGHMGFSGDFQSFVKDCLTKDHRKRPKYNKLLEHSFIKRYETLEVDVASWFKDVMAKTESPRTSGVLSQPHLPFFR

Chain of Tyrosine-protein kinase BTK (Q06187 whole entry): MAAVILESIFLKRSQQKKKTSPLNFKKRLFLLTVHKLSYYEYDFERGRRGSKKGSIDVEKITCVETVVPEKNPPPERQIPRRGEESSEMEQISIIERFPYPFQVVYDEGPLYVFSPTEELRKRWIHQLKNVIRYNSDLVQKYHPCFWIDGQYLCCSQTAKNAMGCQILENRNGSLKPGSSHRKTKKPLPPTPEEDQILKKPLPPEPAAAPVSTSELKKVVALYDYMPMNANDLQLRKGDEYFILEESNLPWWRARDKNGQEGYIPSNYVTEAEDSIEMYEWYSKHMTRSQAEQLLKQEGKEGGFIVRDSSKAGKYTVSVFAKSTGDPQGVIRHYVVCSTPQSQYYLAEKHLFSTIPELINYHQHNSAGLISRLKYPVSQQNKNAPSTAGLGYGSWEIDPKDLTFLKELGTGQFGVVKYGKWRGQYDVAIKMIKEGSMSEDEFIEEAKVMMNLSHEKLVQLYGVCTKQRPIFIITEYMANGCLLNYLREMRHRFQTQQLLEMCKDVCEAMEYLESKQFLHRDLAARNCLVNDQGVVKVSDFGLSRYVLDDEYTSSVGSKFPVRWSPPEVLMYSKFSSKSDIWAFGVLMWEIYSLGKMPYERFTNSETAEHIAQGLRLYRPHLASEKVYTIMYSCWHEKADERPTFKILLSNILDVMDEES

Compound: COc1cc(Nc2nc(C)cc(-c3cnn4nc(OC)ccc34)n2)cc(C(F)(F)F)c1
- % of control [1]: 87%

Compound: CC[C@@H]1[C@H](F)C(=O)N[C@@H]1COc1nccc2cc(C(N)=O)c(OC)cc12 [ZIMLOVISERTIB]
- % of inhibition [2]: 77.2%

Compound: CN(C)CCOc1ccc(-c2nc(-c3ccncc3)c(-c3ccc4c(c3)CC/C4=N\O)[nH]2)cc1
- % of control [6]: 67%
- % of control [7]: 94%

Results, then the compound that gave them:

- IC50 [3]: > 10 µM
Compound: CCC(=O)N1CC[C@H](Nc2ncnc3c2CN(c2cnc(OC)c(C(F)(F)F)c2)CC3)C1 [LENIOLISIB]

- IC50 [4]: > 10 µM
Compound: CCc1cccc(CC)c1NC(=O)c1nn(C)c2c1CCc1cnc(Nc3ccc(C(=O)NC4CCN(C)CC4)cc3OC(F)(F)F)nc1-2

- % of control [5]: 100%
Compound: CCN(CC)CCCCNc1ncc2cc(-c3cc(OC)cc(OC)c3)c(NC(=O)NC(C)(C)C)nc2n1
